In ChEMBL document CHEMBL1155519, “Discovery of N-phenyl-4-(thiazol-5-yl)pyrimidin-2-amine aurora kinase inhibitors” (J Med Chem, 2010):
≈ marks a conversion by molar mass, not a printed value. Calls of active or inactive are those of the source. No cut-off for these calls is given here.

How the values were obtained:
Aurora kinase A = target: T1, Aurora kinase A (Homo sapiens, UniProt O14965); experiment: Inhibition of human recombinant Aurora A after 30 mins
T1 sequence (O14965 whole entry): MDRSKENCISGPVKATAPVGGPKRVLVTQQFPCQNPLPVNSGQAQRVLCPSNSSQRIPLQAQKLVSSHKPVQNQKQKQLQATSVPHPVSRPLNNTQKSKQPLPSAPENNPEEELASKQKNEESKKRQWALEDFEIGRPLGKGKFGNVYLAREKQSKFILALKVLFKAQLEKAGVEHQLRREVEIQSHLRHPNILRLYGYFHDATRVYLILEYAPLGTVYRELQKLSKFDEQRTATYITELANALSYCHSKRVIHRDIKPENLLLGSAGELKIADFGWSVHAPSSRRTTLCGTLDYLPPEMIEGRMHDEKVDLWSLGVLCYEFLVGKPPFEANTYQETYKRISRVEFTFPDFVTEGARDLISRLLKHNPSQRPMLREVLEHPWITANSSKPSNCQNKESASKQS

Aurora kinase B = Aurora kinase B (Homo sapiens, UniProt Q96GD4); experiment: Inhibition of human recombinant Aurora B after 60 mins
Sequence of Aurora kinase B (Q96GD4 whole entry): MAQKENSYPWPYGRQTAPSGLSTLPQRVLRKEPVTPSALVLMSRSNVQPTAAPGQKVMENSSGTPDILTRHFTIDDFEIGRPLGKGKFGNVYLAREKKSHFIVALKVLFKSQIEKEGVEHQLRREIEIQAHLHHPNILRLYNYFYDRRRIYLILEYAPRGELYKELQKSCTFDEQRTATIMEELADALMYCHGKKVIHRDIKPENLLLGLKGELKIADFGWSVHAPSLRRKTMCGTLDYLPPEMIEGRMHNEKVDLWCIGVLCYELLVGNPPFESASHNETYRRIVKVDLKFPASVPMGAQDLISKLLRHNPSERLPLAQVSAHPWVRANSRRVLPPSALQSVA

[1] = target: Cyclin-dependent kinase 1 (Homo sapiens, UniProt P06493); experiment: Inhibition of CDK1
Sequence of Cyclin-dependent kinase 1 (P06493 whole entry): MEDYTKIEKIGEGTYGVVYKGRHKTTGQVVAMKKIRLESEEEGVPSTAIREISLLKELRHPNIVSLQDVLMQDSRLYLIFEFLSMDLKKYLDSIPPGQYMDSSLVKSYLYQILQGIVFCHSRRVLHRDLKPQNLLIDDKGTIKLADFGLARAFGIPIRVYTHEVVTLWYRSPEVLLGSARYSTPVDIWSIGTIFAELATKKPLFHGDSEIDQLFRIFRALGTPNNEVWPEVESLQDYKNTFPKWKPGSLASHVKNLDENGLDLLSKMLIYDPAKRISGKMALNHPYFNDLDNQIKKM

[2] = target: Cyclin-dependent kinase 7 (Homo sapiens, UniProt P50613); experiment: Inhibition of CDK7
Sequence of Cyclin-dependent kinase 7 (P50613 whole entry): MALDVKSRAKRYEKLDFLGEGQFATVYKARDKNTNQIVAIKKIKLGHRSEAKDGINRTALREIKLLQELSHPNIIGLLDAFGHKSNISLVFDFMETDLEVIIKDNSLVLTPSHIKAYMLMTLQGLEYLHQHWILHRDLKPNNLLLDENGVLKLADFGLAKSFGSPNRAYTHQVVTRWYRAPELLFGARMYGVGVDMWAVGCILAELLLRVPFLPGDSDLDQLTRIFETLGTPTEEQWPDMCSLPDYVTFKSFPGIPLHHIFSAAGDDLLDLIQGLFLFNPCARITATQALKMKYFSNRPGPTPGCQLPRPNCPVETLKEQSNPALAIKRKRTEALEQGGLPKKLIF

[3] = target: Cyclin-dependent kinase 9 (Homo sapiens, UniProt P50750); experiment: Inhibition of CDK9
Sequence of Cyclin-dependent kinase 9 (P50750 whole entry): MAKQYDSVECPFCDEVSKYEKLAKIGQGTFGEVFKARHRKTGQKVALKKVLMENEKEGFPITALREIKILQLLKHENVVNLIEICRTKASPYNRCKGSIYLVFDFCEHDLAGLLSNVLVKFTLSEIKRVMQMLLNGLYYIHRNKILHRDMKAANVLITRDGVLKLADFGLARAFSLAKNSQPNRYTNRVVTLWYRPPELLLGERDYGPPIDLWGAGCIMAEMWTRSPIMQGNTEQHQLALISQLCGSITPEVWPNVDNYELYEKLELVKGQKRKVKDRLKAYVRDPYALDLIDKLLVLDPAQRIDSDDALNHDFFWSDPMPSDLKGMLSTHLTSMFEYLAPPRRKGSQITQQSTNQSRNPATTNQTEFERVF

A2780 = experiment: Cytotoxicity against human A2780 cells after 96 hrs by MTT assay; type: functional, cell-based; settings: A2780, 96 h
MIA PaCa-2 = experiment: Cytotoxicity against human MIAPaCa2 cells after 96 hrs by MTT assay; type: functional, cell-based; settings: MIA PaCa-2, 96 h
HT-29 = experiment: Cytotoxicity against human HT-29 cells after 96 hrs by MTT assay; type: functional, cell-based; settings: HT-29, 96 h
HeLa = experiment: Cytotoxicity against human HeLa cells after 96 hrs by MTT assay; type: functional, cell-based
COLO 205 = experiment: Cytotoxicity against human COLO205 cells after 96 hrs by MTT assay; type: functional, cell-based; settings: COLO 205, 96 h
HCT-116 = experiment: Cytotoxicity against human HCT116 cells after 96 hrs by MTT assay; type: functional, cell-based; settings: HCT-116, 96 h
K562 = experiment: Cytotoxicity against human K562 cells after 96 hrs by MTT assay; type: functional, cell-based; settings: K562, 96 h
CCRF-CEM = experiment: Cytotoxicity against human CCRF-CEM cells after 96 hrs by MTT assay; type: functional, cell-based
MV4-11 = experiment: Cytotoxicity against human MV4-11 cells after 96 hrs by MTT assay; type: functional, cell-based; settings: MV4-11, 96 h
HL-60 = experiment: Cytotoxicity against human HL60 cells after 96 hrs by MTT assay; type: functional, cell-based; settings: HL-60, 96 h
NCI-H460 = experiment: Cytotoxicity against human NCI-H460 cells after 96 hrs by MTT assay; type: functional, cell-based; settings: NCI-H460, 96 h
BXPC-3 = experiment: Cytotoxicity against human BxPC3 cells after 96 hrs by MTT assay; type: functional, cell-based; settings: BXPC-3, 96 h
HuP-T4 = experiment: Cytotoxicity against human HUPT4 cells after 96 hrs by MTT assay; type: functional, cell-based; settings: HuP-T4, 96 h
SAOS-2 = experiment: Cytotoxicity against human Saos2 cells after 96 hrs by MTT assay; type: functional, cell-based; settings: SAOS-2, 96 h
[4] = Cytotoxicity against human MESSA cells after 96 hrs by MTT assay; type: functional, cell-based; settings: MES-SA
U2OS [5] = experiment: Inhibition of Aurora kinase in nocodazole-synchronized human U2OS cells assessed as reduction of histone H3 serine-10 phosphorylation at 0.07 to 10 uM after 2 hrs immunofluorescence microscopy; type: cell-based
A549 [6] = experiment: Cell cycle arrest in asynchronous human A549 cells assessed as accumulation of cyclin B-positive tetraploid cells at G2/M phase at 0.5 to 2 uM after 7 hrs by FACS analysis; type: functional, cell-based
A549 [7] = experiment: Cell cycle arrest in asynchronous human A549 cells assessed as accumulation of cyclin B-negative diploid cells at G1 phase at 0.5 uM after 24 hrs by FACS analysis; type: functional, cell-based
A549 [8] = experiment: Cell cycle arrest in asynchronous human A549 cells assessed as accumulation of cyclin B-negative diploid and tetraploid cells at G1 phase at 2 uM after 24 hrs by FACS analysis; type: functional, cell-based
A549 [9] = experiment: Effect on mitotic index in asynchronous human A549 cells assessed as appearance of misaligned chromosomes with shortened spindle fibres at 0.5 uM after 8 hrs […]; type: functional, cell-based
[10] = Octanol-aqueous buffer partition coefficient, log D at pH 7.4 by shake-flask method; type: physicochemical
[11] = Dissociation constant, pKa by pH-metric titration method; type: physicochemical
[12] = Aqueous solubility by turbidimetric analysis; type: physicochemical
[13] = Apparent permeability across human Caco-2 cell membrane; type: ADME, cell-based
Liver microsomes = experiment: Intrinsic clearance in rat liver microsomes by LC/MS/MS analysis; type: ADME, Microsome
[14] = Half life in rat liver microsomes by LC/MS/MS analysis; type: ADME, Microsome
[15] = Fraction unbound in rat plasma by equilibrium dialysis; type: ADME, cell-free
[16] = Cmax in Wistar rat at 10 mg/kg, po after 24 hrs by LC/MS/MS analysis; type: ADME, organism-based; set-up: dose 10 mg/kg, route oral; settings: in vivo
[17] = AUC (0 to 24 hrs) in Wistar rat at 10 mg/kg, po after 24 hrs by LC/MS/MS analysis; type: ADME, organism-based; set-up: time < 24 hr, dose 10 mg/kg, route oral; settings: plasma
[18] = Elimination half life in Wistar rat at 10 mg/kg, po by LC/MS/MS analysis; type: ADME, organism-based; set-up: dose 10 mg/kg, route oral; settings: in vivo, read-out: beta t1/2 (converted)
[19] = Clearance in Wistar rat at 10 mg/kg, po after 24 hrs by LC/MS/MS analysis; type: ADME, organism-based; set-up: dose 10 mg/kg, route oral; settings: in vivo
[20] = Oral bioavailability in Wistar rat at 10 mg/kg after 24 hrs by LC/MS/MS analysis; type: ADME, organism-based; settings: in vivo
[21] = Inhibition of Aurora kinase in human A549 cells assessed as concentration required for half-maximal inhibition of histone H3 serine-10 phosphorylation after 7 hrs immunofluorescence microscopy; type: cell-based; settings: A549, 7 h
[22] = target: Cyclin-dependent kinase 4 (Homo sapiens, UniProt P11802); experiment: Inhibition of CDK4
Sequence of Cyclin-dependent kinase 4 (P11802 whole entry): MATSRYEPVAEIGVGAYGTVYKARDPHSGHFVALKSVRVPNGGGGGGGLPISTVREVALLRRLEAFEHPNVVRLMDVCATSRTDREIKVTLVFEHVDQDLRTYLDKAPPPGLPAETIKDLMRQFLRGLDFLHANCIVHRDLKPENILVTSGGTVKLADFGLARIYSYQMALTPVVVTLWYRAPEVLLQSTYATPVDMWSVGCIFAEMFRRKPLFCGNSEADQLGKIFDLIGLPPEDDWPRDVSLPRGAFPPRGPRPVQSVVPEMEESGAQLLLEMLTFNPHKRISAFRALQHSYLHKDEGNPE

MCF7 = experiment: Induction of p53 protein expression in human MCF7 cells at 0.07 to 10 uM after 7 hrs by fluorescent microscopy; type: functional, cell-based
U2OS [23] = experiment: Inhibition of Aurora kinase in asynchronous human U2OS cells assessed as reduction of histone H3 serine-10 phosphorylation at 150 nM after 7 hrs immunofluorescence microscopy; type: cell-based
[24] = target: Cyclin-dependent kinase 2 (Homo sapiens, UniProt P24941)

## Cc1nc(C)c(-c2ccnc(Nc3ccc(N(C)C)cc3)n2)s1
Aurora kinase A
  Ki: 6.9 nM
Aurora kinase B
  Ki: 15 nM
[1]
  Ki: 2520 nM
[2]
  Ki: 4010 nM
[3]
  Ki: 575 nM
A2780
  IC50: 157 nM
MIA PaCa-2
  IC50: 177 nM
HT-29
  IC50: 128 nM
HeLa
  IC50: 190 nM
COLO 205
  IC50: 84 nM
HCT-116
  IC50: 133 nM
K562
  IC50: 40 nM
CCRF-CEM
  IC50: 170 nM
MV4-11
  IC50: 110 nM
HL-60
  IC50: 128 nM
NCI-H460
  IC50: 180 nM
BXPC-3
  IC50: 93 nM
HuP-T4
  IC50: 156 nM
SAOS-2
  IC50: 320 nM
[4]
  IC50: 110 nM
U2OS [5]
  inhibition: Active
A549 [6]
  Activity: Active
A549 [7]
  Activity: Active
A549 [8]
  Activity: Active
A549 [9]
  Activity: Active
[10]
  logD: 1.33
[11]
  pKa: 5.5
[12]
  solubility kinetic: 20 µM (≈ 6.51 µg/mL)
[13]
  Papp: 49.2 ×10⁻⁶ cm/s
Liver microsomes
  clearance: 296 µL/min/mg
[14]
  half-life: 4.7 min
[15]
  fraction unbound: 0.96
[16]
  Cmax: 900 nM
[17]
  AUC(0-t) at 24 h: 6.9 µM·h
[18]
  half-life: 4.4 h
[19]
  CL/F: 70 mL/min/kg
[20]
  bioavailability: 7%
[21]
  IC50: 2600 nM

## Cc1nc(C)c(-c2ccnc(Nc3ccc(N)cc3)n2)s1
Aurora kinase A
  Ki: 31 nM
[1]
  Ki: 769 nM
[22]
  Ki: 807 nM
[2]
  Ki: 2560 nM
[3]
  Ki: 337 nM
A2780
  IC50: 584 nM
MIA PaCa-2
  IC50: 1230 nM
MCF7
  Activity: inactive
U2OS [23]
  Activity: Active
U2OS [5]
  inhibition: Active
[21]
  IC50: 940 nM
[24]
  Ki: 168 nM

## CNc1nc(C)c(-c2ccnc(Nc3cc(OC)c(OC)c(OC)c3)n2)s1
Aurora kinase A
  Ki: 1 nM
Aurora kinase B
  Ki: 3 nM
[1]
  Ki: 367 nM
[22]
  Ki: 955 nM
[2]
  Ki: 370 nM
[3]
  Ki: 6 nM
A2780
  IC50: 24 nM
MIA PaCa-2
  IC50: 62 nM
MCF7
  Activity: inactive
U2OS [23]
  Activity: inactive
U2OS [5]
  inhibition: Active
[21]
  IC50: 280 nM
[24]
  Ki: 256 nM

## CC(=O)N1CCN(c2ccc(Nc3nccc(-c4sc(C)nc4C)n3)cc2)CC1
Aurora kinase A
  Ki: 8.2 nM
Aurora kinase B
  Ki: 13 nM
[1]
  Ki: 1890 nM
[22]
  Ki: 929 nM
[2]
  Ki: 2800 nM
[3]
  Ki: 1150 nM
A2780
  IC50: 303 nM
MIA PaCa-2
  IC50: 604 nM
[21]
  IC50: 360 nM
[24]
  Ki: 432 nM

## CCNc1nc(C)c(-c2ccnc(Nc3cc(OC)c(OC)c(OC)c3)n2)s1
Aurora kinase A
  Ki: 3 nM
Aurora kinase B
  Ki: 6 nM
[1]
  Ki: 1220 nM
[22]
  Ki: > 10000 nM
[2]
  Ki: 1390 nM
[3]
  Ki: 564 nM
A2780
  IC50: 389 nM
MIA PaCa-2
  IC50: 994 nM
MCF7
  Activity: inactive
U2OS [23]
  Activity: inactive
U2OS [5]
  inhibition: Active
[21]
  IC50: 1880 nM
[24]
  Ki: 463 nM

## Cc1nc(C)c(-c2ccnc(Nc3ccc(N4CCOCC4)cc3)n2)s1
Aurora kinase A
  Ki: 4 nM
Aurora kinase B
  Ki: 9 nM
[1]
  Ki: > 10000 nM
[22]
  Ki: 2170 nM
[2]
  Ki: > 10000 nM
[3]
  Ki: > 10000 nM
A2780
  IC50: 332 nM
MIA PaCa-2
  IC50: 871 nM
MCF7
  Activity: inactive
U2OS [23]
  Activity: inactive
U2OS [5]
  inhibition: Active
[21]
  IC50: 860 nM
[24]
  Ki: 1040 nM

## CCNc1nc(C)c(-c2ccnc(Nc3ccc(N4CCOCC4)cc3)n2)s1
Aurora kinase A
  Ki: 14 nM
Aurora kinase B
  Ki: 6 nM
[1]
  Ki: > 10000 nM
[22]
  Ki: 196 nM
[2]
  Ki: > 10000 nM
[3]
  Ki: 559 nM
A2780
  IC50: 81 nM
MIA PaCa-2
  IC50: 173 nM
MCF7
  Activity: inactive
U2OS [23]
  Activity: inactive
U2OS [5]
  inhibition: Active
[21]
  IC50: 570 nM
[24]
  Ki: 151 nM

## CNc1ccc(Nc2nccc(-c3sc(C)nc3C)n2)cc1
Aurora kinase A
  Ki: 18 nM
Aurora kinase B
  Ki: 33 nM
[1]
  Ki: 909 nM
[22]
  Ki: 840 nM
[2]
  Ki: 4240 nM
[3]
  Ki: 348 nM
A2780
  IC50: 147 nM
MIA PaCa-2
  IC50: 235 nM
[21]
  IC50: 1760 nM
[24]
  Ki: 286 nM
